{"source": "the OPERA property sets (Mansouri et al. 2018)"}
{"units": {"boiling point": "°C", "melting point": "°C"}}
{"smiles": "CCCCOCCO", "boiling point": 168, "log10 Henry constant (atm·m³/mol)": -5.8, "log10 Koc (L/kg)": 1.83, "log10 vapour pressure (mmHg)": -0.0555, "melting point": -74.8, "ready biodegradability": "readily biodegradable"}
{"smiles": "O=C1Nc2ccccc2CCc2ccccc21", "ready biodegradability": "readily biodegradable"}
{"smiles": "c1ccc2ocnc2c1", "boiling point": 182, "melting point": 31}
{"smiles": "O=C(O)c1cccc(F)c1", "melting point": 124}
{"smiles": "CC(C)Oc1cccc(NC(=O)c2ccccc2C(F)(F)F)c1", "log10 vapour pressure (mmHg)": -7.31, "melting point": 104}
{"smiles": "Cc1cc(C)cc(C(=O)N(NC(=O)c2ccccc2)C(C)(C)C)c1", "melting point": 206}
{"smiles": "CSCCl", "boiling point": 105}
{"smiles": "CCOP(=O)([O-])C(N)=O.[NH4+]", "melting point": 175}
{"smiles": "c1ccc2nn(C3CCCCC3)nc2c1", "melting point": 46.5}
{"smiles": "NS(=O)(=O)c1ccc(S(=O)(=O)CCCCO)cc1", "melting point": 134}
{"smiles": "CN(C)C(=O)OC1N=C(c2ccccc2)c2cc(Cl)ccc2N(C)C1=O", "note": "(stereo unspecified)", "melting point": 174}
{"smiles": "CCCCCCC(=O)CCCC", "boiling point": 227, "melting point": 2}
{"smiles": "COP(=O)(OC)OC(Br)C(Cl)(Cl)Br", "note": "(stereo unspecified)", "log10 Koc (L/kg)": 2.26, "log10 vapour pressure (mmHg)": -3.7, "melting point": 27}
{"smiles": "CCI", "boiling point": 72.5, "log10 Koa": 2.59, "log10 vapour pressure (mmHg)": 2.13, "melting point": -111}
{"smiles": "CCCCCCCCCCCCCc1ccccc1", "boiling point": 346, "log10 vapour pressure (mmHg)": -4.9, "melting point": 10}
{"smiles": "Nc1cc(Cl)ccc1Cl", "boiling point": 251, "melting point": 50, "ready biodegradability": "not readily biodegradable"}
{"smiles": "CCNC(=O)COC(=O)c1ccccc1", "melting point": 106}
{"smiles": "NC(=O)CCC/N=C(\\c1ccc(Cl)cc1)c1cc(F)ccc1O", "melting point": 134}
{"smiles": "CN1C2CCC1CC(=O)C2", "boiling point": 227, "melting point": 43}
{"smiles": "CCCCCC#CCC(=O)O", "melting point": 17}
{"smiles": "CC(C)(Br)Br", "boiling point": 115}
{"smiles": "Cn1ccc(=O)c2ccccc21", "melting point": 152}
{"smiles": "OCc1ccccc1Cl", "boiling point": 230, "melting point": 73}
{"smiles": "COC(=O)c1ccoc1", "boiling point": 160}
{"smiles": "O=[N+]([O-])OCC(CCl)O[N+](=O)[O-]", "note": "(stereo unspecified)", "boiling point": 192}
{"smiles": "CC(C)(c1ccccc1)c1ccccc1", "boiling point": 282, "melting point": 29}
{"smiles": "CCCCCCCCCCCC(=O)CC", "melting point": 34}
{"smiles": "O=CN(c1ccccc1)c1ccccc1", "boiling point": 338, "melting point": 73.5}
{"smiles": "CCCC(C)C(C)CC", "note": "(stereo unspecified)", "boiling point": 141}
{"smiles": "CCc1ccccc1CC", "boiling point": 184, "log10 vapour pressure (mmHg)": 0.0212, "melting point": -31.2, "ready biodegradability": "not readily biodegradable"}
{"smiles": "CCCC(=O)Nc1ccc(O)cc1", "melting point": 140}
{"smiles": "CC1(C)CC=CC1", "boiling point": 88}
{"smiles": "O=C(O)c1ccccc1C(=O)c1ccccc1", "boiling point": 261, "melting point": 127}
{"smiles": "c1ccc(-c2ccccc2-c2ccccc2-c2ccccc2)cc1", "boiling point": 420, "melting point": 118}
{"smiles": "CC[C@H](C(N)=O)[C@@H](C)CC", "melting point": 114}
{"smiles": "CCCCCCCCCCCCCCCCCC(=O)OCCCCCCCCCCCCCCCC", "melting point": 57}
{"smiles": "FC(F)(F)C(F)(F)C(F)(F)C(F)(F)C(F)(F)C(F)(F)C(F)(F)C(F)(F)C(F)(F)C(F)(F)Br", "boiling point": 198}
{"smiles": "O=C(O)CCl", "boiling point": 189, "log10 Henry constant (atm·m³/mol)": -8.03, "log10 vapour pressure (mmHg)": -1.19, "melting point": 63, "ready biodegradability": "readily biodegradable"}
{"smiles": "CC1=CC[C@@H]2C[C@@H](C[C@]3(CC[C@H](C)[C@@H](C)O3)O2)OC(=O)[C@@H]2C=C(C)[C@@H](O)[C@H]3OCC(=CC=C[C@H](C)C1)[C@]32O", "melting point": 214}
{"smiles": "COC(Cc1ccccc1)OC", "boiling point": 220}
{"smiles": "O=C(O)/C=C\\C(=O)O", "melting point": 130, "ready biodegradability": "readily biodegradable"}
{"smiles": "CC=C(C)CCl", "boiling point": 110}
{"smiles": "NC1=NCC(c2ccccc2)O1", "note": "(stereo unspecified)", "melting point": 136}
{"smiles": "O[C@@H](Cc1ccccc1)c1ccccc1", "melting point": 67}
{"smiles": "O=[N+]([O-])c1cc(C(F)(F)F)c(Cl)c([N+](=O)[O-])c1Nc1ncc(C(F)(F)F)cc1Cl", "melting point": 113}
{"smiles": "CC(C)OC(=O)C(C)Cl", "note": "(stereo unspecified)", "boiling point": 152}
{"smiles": "NS(=O)(=O)c1ccccc1", "melting point": 151, "ready biodegradability": "not readily biodegradable"}
{"smiles": "CC(C)OC(N)=O", "boiling point": 183, "melting point": 93}
{"smiles": "C1SSCSSS1", "melting point": 60.5}
{"smiles": "CCCCCCC(=O)OCC(C)C", "boiling point": 208}
{"smiles": "CC(=O)CCC(C)C", "boiling point": 144, "log10 vapour pressure (mmHg)": 0.761, "melting point": -74}
{"smiles": "Cc1cc(C)c(C)c(C)c1", "boiling point": 198, "log10 biodegradation half-life (days)": 0.477, "log10 vapour pressure (mmHg)": -0.303, "melting point": -23.7}
{"smiles": "O=C(O)[C@H](O)[C@@H](O)C(=O)O", "note": "(racemic)", "melting point": 174}
{"smiles": "O=C(O)c1ccccc1OP(=O)(O)O", "melting point": 169}
{"smiles": "CN(C)C(=S)N(C)C", "boiling point": 245, "melting point": 79.3}
{"smiles": "BrCc1ccccc1CBr", "melting point": 95}
{"smiles": "CC(=O)c1ccc(C)nc1", "melting point": 17.6}
{"smiles": "Nc1ccc(/N=N/c2ccc(S(N)(=O)=O)cc2)c(N)c1", "melting point": 250}
{"smiles": "CC(C)OC(OC(C)C)OC(C)C", "boiling point": 167}
{"smiles": "Nc1ccc(Cl)cn1", "melting point": 137}
{"smiles": "CC(CCC(=O)O)(c1ccc(O)cc1)c1ccc(O)cc1", "melting point": 172}
{"smiles": "NC1CC1", "boiling point": 50.5, "melting point": -35.4}
{"smiles": "C=CCOCCO", "boiling point": 158}
{"smiles": "CN(C)c1ccc(C(=O)O)cc1", "melting point": 242}
{"smiles": "Clc1ccc(C(Cl)(Cl)Cl)cc1", "boiling point": 245}
{"smiles": "Brc1ccc2oc3ccccc3c2c1", "melting point": 110}
{"smiles": "O=C(O)c1ccccc1Cl", "boiling point": 287, "log10 vapour pressure (mmHg)": -3.18, "melting point": 140, "ready biodegradability": "not readily biodegradable"}
{"smiles": "CC(=O)Oc1ccc(C(=C2CCCCC2)c2ccc(OC(C)=O)cc2)cc1", "melting point": 136}
